Test results taken from ChEMBL document CHEMBL5126532, “Synthetic approaches and structural diversity of triazolylbutanols derived from voriconazole in the antifungal drug development” (Eur J Med Chem, 2022).
Values after ≈ are worked out from the molar mass of the structure shown. Blank lines part the entries; values can stand above or below the compound they belong to.

Assays:
Format in all cases: functional
Candida albicans [1] = assay: Antifungal activity against Candida albicans
Candida parapsilosis = assay: Antifungal activity against Candida parapsilosis; settings: Lodderomyces parapsilosis
Candida albicans [2] = assay: In vivo antifungal activity against Candida albicans infected in CDF1 mouse treated po 4 hrs after injection twice daily for 2 days measured on day 10; settings: 48 h, time 2 day
Aspergillus fumigatus [3] = assay: Antifungal activity against Aspergillus fumigatus TIMM1728 assessed as inhibition of fungal growth incubated for 20 hrs
Aspergillus fumigatus [4] = assay: Antifungal activity against Aspergillus fumigatus IFO6344 assessed as inhibition of fungal growth incubated for 20 hrs
Cryptococcus neoformans [5] = assay: Antifungal activity against Cryptococcus neoformans TIMM1855 assessed as inhibition of fungal growth incubated for 68 hrs
Aspergillus fumigatus [6] = assay: In vivo antifungal activity against Aspergillus fumigatus infected in CDF1 mouse treated po 4 hrs after injection twice daily for 2 days measured on day 10; settings: 48 h, time 2 day
Cryptococcus neoformans [7] = assay: Antifungal activity against Cryptococcus neoformans TIMM1740 assessed as inhibition of fungal growth incubated for 68 hrs
Candida albicans [8] = assay: Antifungal activity against Candida albicans TIMM1756 assessed as inhibition of fungal growth incubated for 20 hrs
Candida albicans [9] = assay: Antifungal activity against Candida albicans TIMM1850 assessed as inhibition of fungal growth incubated for 20 hrs
Cryptococcus neoformans [10] = assay: Antifungal activity against Cryptococcus neoformans; settings: Cryptococcus neoformans; read-out: MIC
Aspergillus fumigatus [11] = assay: Antifungal activity against Aspergillus fumigatus
Candida = assay: Antifungal activity against Candida spp.
Candida albicans [12] = assay: Antifungal activity against Candida albicans assessed as inhibition of fungal growth incubated for 20 hrs
Cryptococcus neoformans [13] = assay: Antifungal activity against Cryptococcus neoformans TIMM 1855 by 96-well microplate method
Aspergillus flavus = assay: Antifungal activity against Aspergillus flavus SANK 18497 by 96-well microplate method
Candida albicans [14] = assay: Antifungal activity against Candida albicans SANK 51486 by 96-well microplate method
Aspergillus fumigatus [15] = assay: Antifungal activity against Aspergillus fumigatus SANK 10569 by 96-well microplate method
Aspergillus sp. = assay: Antifungal activity against Aspergillus sp; settings: Aspergillus sp.; read-out: MIC

MIC80 (Candida albicans [1]): 0.0313 µg/mL (≈ 0.0654 µM)
Structure (SMILES): C[C@@H](OCc1cc(-c2ccc(Cl)cc2F)no1)[C@](O)(Cn1cncn1)c1ccc(F)cc1F

MIC80 (Candida albicans [1]): 0.0313 µg/mL (≈ 0.0677 µM)
Structure (SMILES): C[C@@H](OCc1cc(-c2ccc(F)cc2F)no1)[C@](O)(Cn1cncn1)c1ccc(F)cc1F

MIC80 (Candida albicans [1]): 0.0313 µg/mL (≈ 0.0613 µM)
Structure (SMILES): C[C@@H](OCc1cc(-c2ccc(OC(F)(F)F)cc2)no1)[C@](O)(Cn1cncn1)c1ccc(F)cc1F

MIC (Candida parapsilosis): 4 µg/mL (≈ 5.96 µM)
Structure (SMILES): C[C@@H](N1CCN(c2ccc(-n3cnn(Cc4ccc(OC(F)(F)F)cc4)c3=O)nc2)CC1)[C@](O)(Cn1cncn1)c1ccc(F)cc1F

MIC (Aspergillus fumigatus [3]): 0.25 µg/mL (≈ 0.52 µM) | MIC (Aspergillus fumigatus [4]): 0.25 µg/mL (≈ 0.52 µM) | MIC (Cryptococcus neoformans [5]): 0.016 µg/mL (≈ 0.0333 µM) | MIC (Cryptococcus neoformans [7]): 0.016 µg/mL (≈ 0.0333 µM) | MIC (Candida albicans [8]): ≤ 0.001 µg/mL | MIC (Candida albicans [9]): ≤ 0.001 µg/mL
Structure (SMILES): C[C@@H](N1CCN(c2ccc(-n3ccnn3)cc2)C1=O)[C@](O)(Cn1cncn1)c1ccc(F)cc1F
ED50 (Candida albicans [2]): 0.18 mg/kg | ED50 (Aspergillus fumigatus [6]): 4 mg/kg

MIC80 (Candida albicans [1]): 0.0313 µg/mL (≈ 0.0711 µM)
Structure (SMILES): Cc1cccc(-c2cc(CO[C@H](C)[C@](O)(Cn3cncn3)c3ccc(F)cc3F)on2)c1

MIC (Cryptococcus neoformans [10]): 0.25 µg/mL (≈ 0.452 µM) | MIC (Aspergillus fumigatus [11]): 4 µg/mL (≈ 7.23 µM) | MIC (Candida): 0.03 µg/mL (≈ 0.0542 µM) | MIC (Candida parapsilosis): 0.25 µg/mL (≈ 0.452 µM)
Structure (SMILES): CC(C)Cn1ncn(-c2ccc(N3CCN([C@H](C)[C@](O)(Cn4cncn4)c4ccc(F)cc4F)CC3)nc2)c1=O

MIC80 (Candida albicans [1]): 0.0313 µg/mL (≈ 0.0679 µM)
Structure (SMILES): C[C@@H](OCc1cc(-c2cccc(Cl)c2)no1)[C@](O)(Cn1cncn1)c1ccc(F)cc1F

MIC (Candida albicans [12]): 0.016 µg/mL
Structure (SMILES): C[C@@H](N1CCN(c2ccc(-n3cnnn3)cc2)C1=O)[C@](O)(Cn1c[n+](COC(=O)C(C)(C)C)cn1)c1ccc(F)cc1F.[I-]

MIC (Candida parapsilosis): 4 µg/mL (≈ 5.05 µM)
Structure (SMILES): C[C@@H](N1CCN(c2ccc(-n3cnn(Cc4cc(C(F)(F)F)cc(C(F)(F)F)c4C(F)(F)F)c3=O)nc2)CC1)[C@](O)(Cn1cncn1)c1ccc(F)cc1F

MIC (Candida parapsilosis): 4 µg/mL (≈ 6.1 µM)
Structure (SMILES): C[C@@H](N1CCN(c2ccc(-n3cnn(Cc4ccc(C(F)(F)F)cc4)c3=O)cn2)CC1)[C@](O)(Cn1cncn1)c1ccc(F)cc1F

MIC80 (Candida albicans [1]): 0.0313 µg/mL (≈ 0.0693 µM)
Structure (SMILES): C[C@@H](OCc1cc(-c2ccc(C#N)cc2)no1)[C@](O)(Cn1cncn1)c1ccc(F)cc1F

MIC80 (Candida albicans [1]): 0.0313 µg/mL (≈ 0.0734 µM)
Structure (SMILES): C[C@@H](OCc1cc(-c2ccccc2)no1)[C@](O)(Cn1cncn1)c1ccc(F)cc1F

MIC (Candida parapsilosis): 0.25 µg/mL (≈ 0.463 µM)
Structure (SMILES): CC(C)n1ncn(-c2ccc(N3CCN([C@H](C)[C@](O)(Cn4cncn4)c4ccc(F)cc4F)CC3)nc2)c1=O

MIC80 (Candida albicans [1]): 0.0313 µg/mL (≈ 0.0711 µM)
Structure (SMILES): Cc1ccccc1-c1cc(CO[C@H](C)[C@](O)(Cn2cncn2)c2ccc(F)cc2F)on1

MIC (Cryptococcus neoformans [10]): 0.5 µg/mL (≈ 0.927 µM) | MIC (Aspergillus fumigatus [11]): 4 µg/mL (≈ 7.41 µM) | MIC (Candida): 0.25 µg/mL (≈ 0.463 µM) | MIC (Candida parapsilosis): 0.25 µg/mL (≈ 0.463 µM)
Structure (SMILES): CC(C)n1ncn(-c2ccc(N3CCN([C@H](C)[C@](O)(Cn4cncn4)c4ccc(F)cc4F)CC3)cn2)c1=O

MIC (Candida parapsilosis): 4 µg/mL (≈ 5.53 µM)
Structure (SMILES): C[C@@H](N1CCN(c2ccc(-n3cnn(Cc4cc(C(F)(F)F)cc(C(F)(F)F)c4)c3=O)cn2)CC1)[C@](O)(Cn1cncn1)c1ccc(F)cc1F

MIC80 (Candida albicans [1]): 0.0313 µg/mL (≈ 0.0654 µM)
Structure (SMILES): C[C@@H](OCc1cc(-c2ccc(Cl)c(F)c2)no1)[C@](O)(Cn1cncn1)c1ccc(F)cc1F

MIC80 (Candida albicans [1]): 0.0313 µg/mL (≈ 0.0677 µM)
Structure (SMILES): C[C@@H](OCc1cc(-c2ccc(F)c(F)c2)no1)[C@](O)(Cn1cncn1)c1ccc(F)cc1F

MIC (Cryptococcus neoformans [13]): ≤ 0.008 µg/mL | MIC (Aspergillus flavus): ≤ 0.008 µg/mL | MIC (Candida albicans [14]): ≤ 0.008 µg/mL | MIC (Aspergillus fumigatus [15]): ≤ 0.008 µg/mL
Structure (SMILES): C[C@@H](S[C@H]1CO[C@H](/C=C/C=C/c2ccc(C#N)cc2F)OC1)[C@](O)(Cn1cncn1)c1c(F)cccc1F

MIC (Cryptococcus neoformans [10]): > 16 µg/mL | MIC (Candida): ≥ 4 µg/mL | MIC (Aspergillus sp.): > 64 µg/mL
Structure (SMILES): C[C@@H](N1CC(O)N(c2ccc(-n3cnnn3)cc2)C1=O)[C@](O)(Cn1cncn1)c1ccc(F)cc1F (some centres not stated)

MIC80 (Candida albicans [1]): 0.0313 µg/mL (≈ 0.0652 µM)
Structure (SMILES): C[C@@H](OCc1cc(-c2c(F)cc(F)cc2F)no1)[C@](O)(Cn1cncn1)c1ccc(F)cc1F

MIC (Aspergillus fumigatus [3]): 0.25 µg/mL (≈ 0.52 µM) | MIC (Aspergillus fumigatus [4]): 0.25 µg/mL (≈ 0.52 µM) | MIC (Cryptococcus neoformans [5]): 0.016 µg/mL (≈ 0.0333 µM) | MIC (Cryptococcus neoformans [7]): 0.016 µg/mL (≈ 0.0333 µM) | MIC (Candida albicans [8]): ≤ 0.001 µg/mL | MIC (Candida albicans [9]): ≤ 0.001 µg/mL
Structure (SMILES): C[C@@H](N1CCN(c2ccc(-n3cncn3)cc2)C1=O)[C@](O)(Cn1cncn1)c1ccc(F)cc1F
ED50 (Candida albicans [2]): 0.18 mg/kg | ED50 (Aspergillus fumigatus [6]): 4.4 mg/kg

MIC80 (Candida albicans [1]): 0.0313 µg/mL (≈ 0.0654 µM)
Structure (SMILES): C[C@@H](OCc1cc(-c2ccc(F)cc2Cl)no1)[C@](O)(Cn1cncn1)c1ccc(F)cc1F

MIC80 (Candida albicans [1]): 0.0313 µg/mL (≈ 0.0654 µM)
Structure (SMILES): C[C@@H](OCc1cc(-c2ccc(F)c(Cl)c2)no1)[C@](O)(Cn1cncn1)c1ccc(F)cc1F

MIC (Candida albicans [12]): 0.016 µg/mL
Structure (SMILES): CC(C)COC(=O)OC[n+]1cnn(C[C@](O)(c2ccc(F)cc2F)[C@@H](C)N2CCN(c3ccc(-n4cnnn4)cc3)C2=O)c1.[I-]

MIC (Candida albicans [12]): 0.016 µg/mL
Structure (SMILES): C[C@@H](N1CCN(c2ccc(-n3cnnn3)cc2)C1=O)[C@](O)(Cn1c[n+](COC(=O)OC2COCOC2)cn1)c1ccc(F)cc1F.[I-]

MIC80 (Candida albicans [1]): 0.0313 µg/mL (≈ 0.0704 µM)
Structure (SMILES): C[C@@H](OCc1cc(-c2cccc(F)c2)no1)[C@](O)(Cn1cncn1)c1ccc(F)cc1F

MIC (Cryptococcus neoformans [13]): ≤ 0.008 µg/mL | MIC (Aspergillus flavus): ≤ 0.008 µg/mL | MIC (Candida albicans [14]): ≤ 0.008 µg/mL | MIC (Aspergillus fumigatus [15]): ≤ 0.008 µg/mL
Structure (SMILES): C[C@@H](S[C@H]1CO[C@H](/C=C/C=C/c2ccc(C#N)cc2F)OC1)[C@](O)(Cn1cncn1)c1cccc(F)c1F
